Experimental data taken from patent US12459951B2, “Compounds that interact with RAS superfamily proteins for treatment of cancers, inflammatory diseases, rasopathies, and fibrotic disease” (SHY Therapeutics, LLC, priority 2022, dated 2025).

How the values were obtained:
[1] = system: Smad2/Smad3 phosphorylation; assay: Phospho-Smad2/3 Inhibition Assay (western blot), Panc-1; type: cell-based, human; settings: at 10 μM, Panc-1 pancreatic cancer cell line; starred symbols = activation
Summary of the method: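 Panc-1 cells (KRas G12D), starved overnight in 0.5% FBS, treated 3 h at 37° C with compound at 10 μM final (0.3% DMSO) or serial dilutions for IC50, then stimulated with 10 ng/ml TGF-b1 for 1 h. Phospho-Smad2 (Ser465/467) and phospho-Smad3 (Ser423/425) detected by western blot.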

KRas G12C mutant = assay: Ras GTP Binding Domain Inhibition Assay (Ras Superfamily Assay); settings: 20 μM compound; for KRas G12C mutant + SOS: % inh.: with SOS; for KRas G12C mutant: % inh.: without SOS
Summary of the method: (§1)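 Binding of 100 nM fluorescent GTP (Cy3 or Cy5, 45 min, room temperature) was read after washes from plate-captured His-tagged protein. Beforehand, compounds at 20 μM or in dilution series for IC50 sat 3 h on the protein in Tris buffer pH 7.4 or 7.0 with 1% DMSO, Sos GEF optionally added for the last hour.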

KRas G12D mutant = assay: as above; settings: 20 μM compound; for KRas G12D mutant + SOS: % inh.: with SOS; for KRas G12D mutant: % inh.: without SOS
Summary of the method: as §1

KRas Q61H mutant = assay: as above; settings: 20 μM compound; for KRas Q61H mutant + SOS: % inh.: with SOS; for KRas Q61H mutant: % inh.: without SOS
Summary of the method: as §1

KRas wild type = assay: as above; settings: 20 μM compound; for KRas wild type + SOS: % inh.: with SOS; for KRas wild type: % inh.: without SOS
Summary of the method: as §1

Rac-1 = molecular target: T1, Rac-1 (Homo sapiens, UniProt P63000); assay: as above; settings: read-out: Rac-1: % inh.
T1 construct: made in house
Summary of the method: as §1

Rho-A = molecular target: T2, Rho-A (Homo sapiens, UniProt P61586); assay: as above; settings: read-out: Rho-A: % inh..
T2 construct: made in house
Summary of the method: as §1

T2 sequence (P61586 whole entry): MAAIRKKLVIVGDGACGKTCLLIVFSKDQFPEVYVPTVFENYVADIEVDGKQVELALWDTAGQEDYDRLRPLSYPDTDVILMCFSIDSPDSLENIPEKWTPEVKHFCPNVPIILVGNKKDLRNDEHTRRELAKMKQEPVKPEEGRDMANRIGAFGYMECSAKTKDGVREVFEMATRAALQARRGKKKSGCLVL

Compound: COc1cnc(Nc2nc(-c3nccn3C)nn3cc(-c4ccn(C(C)C)n4)c(C)c23)nc1 [Compound 56, 6-(1-Isopropyl-1H-pyrazol-3-yl)-N-(5-methoxypyrimidin-2-yl)-5-methyl-2-(1-methyl-1H-imidazol-2-yl)pyrrolo[2,1-f][1,2,4]triazin-4-amine]
- % inh of Smad2/3 phosphorylation in Panc-1 [1]: D* (D* = 76-100% activation)
- KRas G12C mutant + SOS: % inh. (KRas G12C mutant): A (A = 1-25% inhibition)
- KRas G12C mutant: % inh. (KRas G12C mutant): C (C = 50-75% inhibition)
- KRas G12D mutant + SOS: % inh. (KRas G12D mutant): B (B = 26-49% inhibition)
- KRas G12D mutant: % inh. (KRas G12D mutant): B (B = 26-49% inhibition)
- KRas Q61H mutant + SOS: % inh. (KRas Q61H mutant): D (D = 76-100% inhibition)
- KRas Q61H mutant: % inh. (KRas Q61H mutant): C (C = 50-75% inhibition)
- KRas wild type + SOS: % inh. (KRas wild type): 0 (0 = 0% inhibition)
- KRas wild type: % inh. (KRas wild type): B (B = 26-49% inhibition)
- inhibition at 20 µM (Rac-1): 50 to 75%
- inhibition at 20 µM (Rho-A): 50 to 75%

Compound: Cc1c(-c2ccn(C(C)C)n2)cn2nc(-c3nccn3C)nc(Nc3nnco3)c12 [Compound 59, N-(6-(1-Isopropyl-1H-pyrazol-3-yl)-5-methyl-2-(1-methyl-1H-imidazol-2-yl)pyrrolo[2,1-f][1,2,4]triazin-4-yl)-1,3,4-oxadiazol-2-amine]
- % inh of Smad2/3 phosphorylation in Panc-1 [1]: D (D = 76-100% inhibition)
- KRas G12C mutant + SOS: % inh. (KRas G12C mutant): B (B = 26-49% inhibition)
- KRas G12C mutant: % inh. (KRas G12C mutant): C (C = 50-75% inhibition)
- KRas G12D mutant + SOS: % inh. (KRas G12D mutant): C (C = 50-75% inhibition)
- KRas G12D mutant: % inh. (KRas G12D mutant): D (D = 76-100% inhibition)
- KRas Q61H mutant + SOS: % inh. (KRas Q61H mutant): D (D = 76-100% inhibition)
- KRas Q61H mutant: % inh. (KRas Q61H mutant): D (D = 76-100% inhibition)
- KRas wild type + SOS: % inh. (KRas wild type): C (C = 50-75% inhibition)
- KRas wild type: % inh. (KRas wild type): C (C = 50-75% inhibition)
- inhibition at 20 µM (Rac-1): 76 to 100%
- inhibition at 20 µM (Rho-A): 76 to 100%

Compound: COCCNc1nc(-c2nccn2C)nn2cc(-c3ccn(C(C)C)n3)c(C(C)C)c12 [Compound 35, 5-Isopropyl-6-(1-isopropyl-1H-pyrazol-3-yl)-N-(2-methoxyethyl)-2-(1-methyl-1H-imidazol-2-yl)pyrrolo[2,1-f][1,2,4]triazin-4-amine]
- % inh of Smad2/3 phosphorylation in Panc-1 [1]: A (A = 1-25% inhibition)
- KRas G12C mutant + SOS: % inh. (KRas G12C mutant): 0 (0 = 0% inhibition)
- KRas G12C mutant: % inh. (KRas G12C mutant): A (A = 1-25% inhibition)
- KRas G12D mutant + SOS: % inh. (KRas G12D mutant): 0 (0 = 0% inhibition)
- KRas G12D mutant: % inh. (KRas G12D mutant): 0 (0 = 0% inhibition)
- KRas Q61H mutant + SOS: % inh. (KRas Q61H mutant): A (A = 1-25% inhibition)
- KRas Q61H mutant: % inh. (KRas Q61H mutant): A (A = 1-25% inhibition)
- KRas wild type + SOS: % inh. (KRas wild type): A (A = 1-25% inhibition)
- KRas wild type: % inh. (KRas wild type): A (A = 1-25% inhibition)
- inhibition at 20 µM (Rac-1): 0%
- inhibition at 20 µM (Rho-A): 1 to 25%

Compound: Cc1c(-c2ccn(C(C)C)n2)cn2nc(-c3nccn3C)nc(Nc3ncccn3)c12 [Compound 54, 6-(1-Isopropyl-1H-pyrazol-3-yl)-5-methyl-2-(1-methyl-1H-imidazol-2-yl)-N-(pyrimidin-2-yl)pyrrolo[2,1-f][1,2,4]triazin-4-amine]
- % inh of Smad2/3 phosphorylation in Panc-1 [1]: A (A = 1-25% inhibition)
- KRas G12C mutant + SOS: % inh. (KRas G12C mutant): C (C = 50-75% inhibition)
- KRas G12C mutant: % inh. (KRas G12C mutant): D (D = 76-100% inhibition)
- KRas G12D mutant + SOS: % inh. (KRas G12D mutant): C (C = 50-75% inhibition)
- KRas G12D mutant: % inh. (KRas G12D mutant): D (D = 76-100% inhibition)
- KRas Q61H mutant + SOS: % inh. (KRas Q61H mutant): D (D = 76-100% inhibition)
- KRas Q61H mutant: % inh. (KRas Q61H mutant): D (D = 76-100% inhibition)
- KRas wild type + SOS: % inh. (KRas wild type): C (C = 50-75% inhibition)
- KRas wild type: % inh. (KRas wild type): C (C = 50-75% inhibition)
- inhibition at 20 µM (Rac-1): 76 to 100%
- inhibition at 20 µM (Rho-A): 76 to 100%

Compound: COc1cccc(-c2cn3nc(-c4nccn4C)nc(N[C@H]4C[C@H](OC)C4)c3c2-c2ccccn2)c1F [Compound 45, 6-(2-Fluoro-3-methoxyphenyl)-N-((1r,3r)-3-methoxycyclobutyl)-2-(1-methyl-1H-imidazol-2-yl)-5-(pyridin-2-yl)pyrrolo[2,1-f][1,2,4]triazin-4-amine]
- % inh of Smad2/3 phosphorylation in Panc-1 [1]: 0 (0 = 0% inhibition)
- KRas G12C mutant + SOS: % inh. (KRas G12C mutant): A (A = 1-25% inhibition)
- KRas G12C mutant: % inh. (KRas G12C mutant): B (B = 26-49% inhibition)
- KRas G12D mutant + SOS: % inh. (KRas G12D mutant): A (A = 1-25% inhibition)
- KRas G12D mutant: % inh. (KRas G12D mutant): B (B = 26-49% inhibition)
- KRas Q61H mutant + SOS: % inh. (KRas Q61H mutant): D (D = 76-100% inhibition)
- KRas Q61H mutant: % inh. (KRas Q61H mutant): D (D = 76-100% inhibition)
- KRas wild type + SOS: % inh. (KRas wild type): B (B = 26-49% inhibition)
- KRas wild type: % inh. (KRas wild type): B (B = 26-49% inhibition)
- inhibition at 20 µM (Rac-1): 50 to 75%
- inhibition at 20 µM (Rho-A): 50 to 75%
